Data reported in the supplement of paper PMC5908809.

What was measured:
[1] = tested on: normal NK cells expanded with K562-aAPC; test: drug sensitivity score (DSS) (DSS units); higher = more sensitive; extreme values may be limits of the assay; details: 72 h; IL-2 2.5 ng/mL
Description: (§1)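 Drug sensitivity and resistance testing on K562-aAPC-expanded normal NK cells: 5 concentrations (10-fold steps over a 10,000-fold range), 72 h at 37 °C, viability by CellTiter-Glo normalised to DMSO and benzethonium chloride controls; DSS from the fitted curve.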

[2] = tested on: normal NK cells expanded with K562-aAPC; test: percent inhibition of viability; higher = more inhibition; details: 72 h, IL-2 2.5 ng/mL
Description: as §1

[3] = tested on: KHYG-1 (IL-2 2.5 ng/mL); test: drug sensitivity score (DSS) (DSS units); higher = more sensitive; extreme values may be limits of the assay; details: 72 h
[4] = tested on: YT (IL-2 2.5 ng/mL); test: as above; details: 72 h
[5] = tested on: NK-92 (IL-2 2.5 ng/mL); test: as above; details: 72 h
[6] = tested on: NK-YS (IL-2 2.5 ng/mL); test: as above; details: 72 h
[7] = tested on: IMC-1 (IL-2 20 ng/mL); test: as above; details: 72 h
[8] = tested on: normal primary NK cells, pool 2 (3 donors) (IL-2 2.5 ng/mL); test: as above; details: 72 h
[9] = tested on: KAI3 (IL-2 2.5 ng/mL); test: as above; details: 72 h
[10] = tested on: DERL-7 (IL-2 2.5 ng/mL); test: as above; details: 72 h
[11] = tested on: normal primary NK cells, pool 1 (3 donors) (IL-2 2.5 ng/mL); test: as above; details: 72 h
[12] = tested on: normal primary NK cells, pool 1 (3 donors), resting (IL-2 0 ng/mL); test: as above; details: 72 h
[13] = tested on: NKL (IL-2 2.5 ng/mL); test: as above; details: 72 h
[14] = tested on: normal primary NK cells, pool 3 (3 donors) (IL-2 2.5 ng/mL); test: as above; details: 72 h
[15] = tested on: SNK-6 (IL-2 2.5 ng/mL); test: as above; details: 72 h
[16] = tested on: KHYG-1 (IL-2 2.5 ng/mL); test: percent inhibition of viability; higher = more inhibition; details: 72 h
[17] = tested on: YT (IL-2 2.5 ng/mL); test: as above; details: 72 h
[18] = tested on: NK-92 (IL-2 2.5 ng/mL); test: as above; details: 72 h
[19] = tested on: NK-YS (IL-2 2.5 ng/mL); test: as above; details: 72 h
[20] = tested on: IMC-1 (IL-2 20 ng/mL); test: as above; details: 72 h
[21] = tested on: normal primary NK cells, pool 2 (3 donors) (IL-2 2.5 ng/mL); test: as above; details: 72 h
[22] = tested on: KAI3 (IL-2 2.5 ng/mL); test: as above; details: 72 h
[23] = tested on: DERL-7 (IL-2 2.5 ng/mL); test: as above; details: 72 h
[24] = tested on: normal primary NK cells, pool 1 (3 donors) (IL-2 2.5 ng/mL); test: as above; details: 72 h
[25] = tested on: normal primary NK cells, pool 1 (3 donors), resting (IL-2 0 ng/mL); test: as above; details: 72 h
[26] = tested on: NKL (IL-2 2.5 ng/mL); test: as above; details: 72 h
[27] = tested on: normal primary NK cells, pool 3 (3 donors) (IL-2 2.5 ng/mL); test: as above; details: 72 h
[28] = tested on: SNK-6 (IL-2 2.5 ng/mL); test: as above; details: 72 h

O=C(O)c1ccc2c(c1)nc(Nc1cccc(Cl)c1)c1ccncc12 [Silmitasertib] (max concentration tested 10000 nM)
Details | drug sensitivity score
[1] | 8.41
[3] | 7.83
[4] | 7.24
[5] | 4.09
[6] | 6.72
[7] | 2.35
[8] | 5.68
[9] | 7.33
[10] | 7.04
[11] | 7.64
[12] | 2.91
[13] | 6.45
[14] | 5.54
[15] | 4.04

percent inhibition of viability [%]
Details | 1 nM | 10 nM | 100 nM | 1000 nM | 10000 nM
[2] | 6.72 | 1.13 | 2.51 | 24.6 | 85.7
[16] | 2.32 | 3.89 | 1.97 | 14.4 | 98.1
[17] | 5.21 | 5.15 | 4.79 | 17.7 | 79.9
[18] | 6.03 | 10.9 | -12.3 | -16.9 | 90.2
[19] | 5.01 | 1.7 | 1.66 | 10.8 | 88.7
[20] | 7.09 | 6.12 | 5.81 | -2.16 | 48.4
[21] | -8.83 | -6.36 | 2.09 | 8.72 | 76.5
[22] | 4.28 | 8.25 | 8.8 | 16.1 | 84.8
[23] | -3.79 | 0.67 | -2.32 | 10.4 | 96
[24] | -9.41 | -7.07 | -7.39 | 18.1 | 85.6
[25] | -25.1 | -31.8 | -43.9 | -9.05 | 63.9
[26] | 11.5 | 10.7 | 2.41 | 13.4 | 76.3
[27] | -4.66 | -2.89 | -4.84 | 9.91 | 70.3
[28] | 4.5 | 3.13 | -1.8 | -10.8 | 85.2

Cc1c(C(=O)Nc2ccc(N3C[C@@H](C)O[C@@H](C)C3)nc2)cccc1-c1ccc(OC(F)(F)F)cc1 [Sonidegib] (max concentration tested 10000 nM)
Details | drug sensitivity score
[1] | 0.28
[3] | 2.43
[4] | 2.89
[5] | 8.23
[6] | 2.3
[7] | 4.85
[8] | 0
[9] | 0.87
[10] | 0
[11] | 0
[12] | 0
[13] | 2.01
[14] | 0
[15] | 10.6

percent inhibition of viability [%]
Details | 1 nM | 10 nM | 100 nM | 1000 nM | 10000 nM
[2] | -1.35 | -1.33 | -0.97 | 6.62 | 11.9
[16] | 1.09 | -0.52 | 4.83 | 5.39 | 33.4
[17] | 1.1 | 5.23 | 7.91 | 6.65 | 37
[18] | 5.8 | 1.52 | 11.2 | 33.5 | 79.3
[19] | -0.38 | 2.73 | 7.41 | 11.1 | 31.1
[20] | -2.05 | 0.95 | 10.7 | 7.33 | 66.2
[21] | -5.58 | -3.94 | 1.51 | -3.08 | -2.7
[22] | -9.76 | 2.17 | -0.83 | -2.67 | 26.2
[23] | -6.39 | 0.97 | 3.22 | 7.44 | 7.71
[24] | 2.22 | -1.01 | 1.87 | -6.02 | -0.78
[25] | 7.84 | -5.48 | 2.43 | -23.8 | -13.6
[26] | -6.67 | 3.73 | -0.64 | 6.28 | 26.8
[27] | -16.4 | -5.96 | 3.9 | -2.57 | -0.38
[28] | 4.68 | 24.7 | 23.1 | 15.3 | 25.6

CC(=O)Nc1ccc(C(=O)Nc2ccccc2N)cc1 [Tacedinaline] (max concentration tested 1000 nM)
Details | drug sensitivity score
[1] | 0.42
[3] | 0.78
[4] | 1.69
[5] | 1.36
[6] | 1
[7] | 0.58
[8] | 0
[9] | 1.62
[10] | 0
[11] | 0.6
[12] | 5.06
[13] | 0.67
[14] | 0
[15] | 2.54

percent inhibition of viability [%]
Details | 0.1 nM | 1 nM | 10 nM | 100 nM | 1000 nM
[2] | -1.06 | -4 | -3.33 | 3.27 | 14
[16] | -0.97 | -4.06 | -3.24 | 4.27 | 16.5
[17] | -4.71 | -3.94 | -0.65 | 4.76 | 25.3
[18] | -18.8 | 2.67 | -7.86 | 1.73 | 27.5
[19] | -0.71 | -3.09 | -0.76 | 2.62 | 20.6
[20] | -3.66 | -4.64 | -1.29 | 1.46 | 17.6
[21] | -2.79 | 13 | 9.29 | 6.96 | 7.45
[22] | -0.2 | 1.1 | -0.46 | -0.59 | 35.3
[23] | -0.72 | 2.51 | 4.2 | -1.26 | -25
[24] | -1.61 | 16.8 | 8.47 | 8.43 | 13
[25] | -5.67 | 17.3 | 11.8 | 17 | 7.91
[26] | -13.2 | -9.56 | -8.35 | 10.4 | 13.4
[27] | -4.4 | 14.9 | 12.8 | -1.16 | -0.28
[28] | 1.48 | -10.9 | -5.83 | 1.17 | 46.3

CN1CCc2c(c3ccccc3n2Cc2ccc(C(=O)NO)cc2)C1 [Tubastatin A] (max concentration tested 10000 nM)
Details | drug sensitivity score
[1] | 4.5
[3] | 4.58
[4] | 5.09
[5] | 8.57
[6] | 4.55
[7] | 4.57
[8] | 3.66
[9] | 9.51
[10] | 3.03
[11] | 5.39
[12] | 7.58
[13] | 8.2
[14] | 1.21
[15] | 5.42

percent inhibition of viability [%]
Details | 1 nM | 10 nM | 100 nM | 1000 nM | 10000 nM
[2] | -5.45 | -1.84 | -1.29 | 9.86 | 53.5
[16] | -2.63 | -7.38 | -2.24 | 5.2 | 68.8
[17] | -0.87 | -2.95 | -0.96 | 6.63 | 72.9
[18] | -3.57 | -14.2 | -5.66 | 22.2 | 92.4
[19] | -4.34 | -5.38 | -3.76 | 9.99 | 54.1
[20] | -3.32 | -4.63 | -0.4 | -1.55 | 84.5
[21] | -2.86 | 0.66 | 3.2 | 7.48 | 46.4
[22] | 2.16 | -0.84 | 7.18 | 38.8 | 90.5
[23] | -3.55 | 1.06 | -2.9 | -2.52 | 60
[24] | 7.05 | 12.2 | 16.9 | 13 | 63.5
[25] | 8.81 | 19.6 | 12 | 26.2 | 81.9
[26] | -6.98 | -8.33 | 6.76 | 35.4 | 74.1
[27] | -0.16 | 11.4 | -0.85 | -0.8 | 29.6
[28] | 8.54 | 0.91 | 4.89 | 18.5 | 57

C/C(=C\c1csc(C)n1)[C@@H]1C[C@@H]2O[C@]2(C)CCC[C@H](C)[C@H](O)[C@@H](C)C(=O)C(C)(C)[C@@H](O)CC(=O)N1 [Ixabepilone] (max concentration tested 1000 nM)
Details | drug sensitivity score
[1] | 2.77
[3] | 5.84
[4] | 5.3
[5] | 4.08
[6] | 3.45
[7] | 4.92
[8] | 0
[9] | 2.26
[10] | 5.27
[11] | 0
[12] | 0
[13] | 4.34
[14] | 0
[15] | 3.82

percent inhibition of viability [%]
Details | 0.1 nM | 1 nM | 10 nM | 100 nM | 1000 nM
[2] | -1.18 | -8.46 | -3.17 | -2.89 | 56.2
[16] | -4.44 | -6.03 | -7.83 | 2.2 | 99.9
[17] | -0.47 | -4.36 | -8.15 | 1.21 | 92.3
[18] | -7.7 | -17.5 | -9.17 | -20.4 | 92
[19] | -10.3 | -9.56 | -5.83 | -4.02 | 68.7
[20] | -7.65 | -4.14 | -5.18 | -8.88 | 99.5
[21] | -8.83 | -5.74 | -1.71 | -8.89 | 4.45
[22] | -14.5 | -15 | -11.8 | -8.42 | 52.3
[23] | -1.92 | -1.52 | 3.37 | -3.24 | 99.5
[24] | -13 | -15.1 | -13.4 | -8.88 | -3.61
[25] | -34.8 | -25.5 | -23.3 | -10.4 | -12
[26] | 1.14 | -23.1 | -11 | -7.09 | 87.4
[27] | -11.4 | -5.18 | -5.26 | -11.3 | 0.09
[28] | 6.18 | 12.8 | -13.9 | -4.41 | 75.4
